Data as given in the NIST ThermoML archive (doi:10.1016/j.tca.2015.08.013).

Settings: for surface tension liquid-gas: Drop volume; for mass density / kinematic viscosity / speed of sound / vapor or sublimation pressure: Liquid; for mass density: Vibrating tube method; for kinematic viscosity / speed of sound: 101.33 kPa; for kinematic viscosity: Capillary tube (Ostwald / Ubbelohde) method; for speed of sound: Sing-around technique in a fixed-path interferometer; for vapor or sublimation pressure: Ebulliometric method (Recirculating still)

Cc1ccco1 [2-methylfuran]
Settings | kinematic viscosity [m2/s] | speed of sound [m/s] | surface tension liquid-gas [mN/m] | vapor or sublimation pressure [kPa]
278.15 K | 5.39e-07 | 1254.8 | 27.02 | –
280.65 K | 5.23e-07 | 1243.4 | 26.6 | –
283.15 K | 5.08e-07 | 1231.9 | 26.29 | –
285.37 K | – | – | – | 12.57
285.65 K | 4.93e-07 | 1220.4 | 26 | –
286.86 K | – | – | – | 13.65
288.15 K | 4.79e-07 | 1209 | 25.69 | –
289.1 K | – | – | – | 15.22
290.65 K | 4.66e-07 | 1197.5 | 25.26 | –
291.81 K | – | – | – | 17.26
293.15 K | 4.55e-07 | 1186 | 24.98 | –
293.4 K | – | – | – | 18.52
294.3 K | – | – | – | 19.48
295.65 K | 4.46e-07 | 1174.6 | 24.66 | –
295.86 K | – | – | – | 20.63
297.45 K | – | – | – | 22.34
298.15 K | 4.38e-07 | 1163.2 | 24.34 | –
299.76 K | – | – | – | 24.68
300.65 K | 4.29e-07 | 1151.9 | 24.03 | –
300.83 K | – | – | – | 25.8
303.15 K | 4.2e-07 | 1140.6 | 23.71 | –
303.45 K | – | – | – | 28.68
305.13 K | – | – | – | 30.8
305.65 K | 4.11e-07 | 1129.3 | 23.41 | –
307.42 K | – | – | – | 33.94
308.15 K | 4.01e-07 | 1118.1 | 23.06 | –
308.17 K | – | – | – | 35.04
310.12 K | – | – | – | 37.92
310.65 K | 3.92e-07 | 1106.8 | 22.71 | –
312.06 K | – | – | – | 41.03
313.15 K | 3.83e-07 | 1095.6 | 22.37 | –
314.02 K | – | – | – | 44.3
315.65 K | 3.74e-07 | 1084.4 | 22.08 | –
316.08 K | – | – | – | 47.94
317.22 K | – | – | – | 50.08
318.15 K | 3.66e-07 | 1073.3 | 21.69 | –
319.29 K | – | – | – | 54.16
320.65 K | 3.58e-07 | 1062.1 | 21.35 | –
321.15 K | – | – | – | 58.19
323.05 K | – | – | – | 62.23
323.15 K | 3.5e-07 | 1051 | 21 | –
325.57 K | – | – | – | 68.18
325.65 K | 3.42e-07 | 1039.9 | 20.7 | –
327.23 K | – | – | – | 72.31
328.15 K | 3.36e-07 | 1028.8 | 20.46 | –
329.07 K | – | – | – | 77.17
330.65 K | 3.28e-07 | 1017.7 | 20.08 | –
331.13 K | – | – | – | 82.86
333.15 K | 3.2e-07 | 1006.7 | 19.74 | –
333.27 K | – | – | – | 89.15
334.25 K | – | – | – | 92.22
335.65 K | 3.13e-07 | 995.68 | 19.41 | –
336.39 K | – | – | – | 99.03
337.09 K | – | – | – | 101.33
338.15 K | 3.07e-07 | 984.65 | 19.09 | –

Settings | mass density [kg/m3]
278.15 K, 99 kPa | 934.034
280.65 K, 99 kPa | 931.092
283.15 K, 99 kPa | 928.13
283.15 K, 100 kPa | 928.13
283.15 K, 2500 kPa | 930.56
283.15 K, 5000 kPa | 932.75
283.15 K, 7500 kPa | 935.07
283.15 K, 10000 kPa | 937.27
283.15 K, 20000 kPa | 945.74
283.15 K, 30000 kPa | 953.37
283.15 K, 40000 kPa | 960.5
283.15 K, 50000 kPa | 967.21
283.15 K, 60000 kPa | 973.54
285.65 K, 99 kPa | 925.161
288.15 K, 99 kPa | 922.181
288.15 K, 100 kPa | 922.18
288.15 K, 2500 kPa | 924.54
288.15 K, 5000 kPa | 926.97
288.15 K, 7500 kPa | 929.48
288.15 K, 10000 kPa | 931.62
288.15 K, 20000 kPa | 940.4
288.15 K, 30000 kPa | 948.28
288.15 K, 40000 kPa | 955.59
288.15 K, 50000 kPa | 962.35
288.15 K, 60000 kPa | 968.84
290.65 K, 99 kPa | 919.197
293.15 K, 99 kPa | 916.198
293.15 K, 100 kPa | 916.2
293.15 K, 2500 kPa | 918.63
293.15 K, 5000 kPa | 921.3
293.15 K, 7500 kPa | 923.72
293.15 K, 10000 kPa | 926.09
293.15 K, 20000 kPa | 934.94
293.15 K, 30000 kPa | 943.1
293.15 K, 40000 kPa | 950.59
293.15 K, 50000 kPa | 957.61
293.15 K, 60000 kPa | 964.27
295.65 K, 99 kPa | 913.193
298.15 K, 99 kPa | 910.179
298.15 K, 100 kPa | 910.18
298.15 K, 2500 kPa | 912.71
298.15 K, 5000 kPa | 915.3
298.15 K, 7500 kPa | 918
298.15 K, 10000 kPa | 920.32
298.15 K, 20000 kPa | 929.72
298.15 K, 30000 kPa | 937.91
298.15 K, 40000 kPa | 945.67
298.15 K, 50000 kPa | 952.89
298.15 K, 60000 kPa | 959.58
300.65 K, 99 kPa | 907.155
303.15 K, 99 kPa | 904.121
303.15 K, 100 kPa | 904.12
303.15 K, 2500 kPa | 906.73
303.15 K, 5000 kPa | 909.46
303.15 K, 7500 kPa | 912.07
303.15 K, 10000 kPa | 914.76
303.15 K, 20000 kPa | 924.23
303.15 K, 30000 kPa | 932.75
303.15 K, 40000 kPa | 940.68
303.15 K, 50000 kPa | 948.03
303.15 K, 60000 kPa | 955.1
305.65 K, 99 kPa | 901.077
308.15 K, 99 kPa | 898.02
308.15 K, 100 kPa | 898.02
308.15 K, 2500 kPa | 900.91
308.15 K, 5000 kPa | 903.72
308.15 K, 7500 kPa | 906.43
308.15 K, 10000 kPa | 909.05
308.15 K, 20000 kPa | 918.85
308.15 K, 30000 kPa | 927.65
308.15 K, 40000 kPa | 935.68
308.15 K, 50000 kPa | 943.2
308.15 K, 60000 kPa | 950.35
310.65 K, 99 kPa | 894.953
313.15 K, 99 kPa | 891.871
313.15 K, 100 kPa | 891.87
313.15 K, 2500 kPa | 894.72
313.15 K, 5000 kPa | 897.62
313.15 K, 7500 kPa | 900.57
313.15 K, 10000 kPa | 903.14
313.15 K, 20000 kPa | 913.34
313.15 K, 30000 kPa | 922.45
313.15 K, 40000 kPa | 930.83
313.15 K, 50000 kPa | 938.5
313.15 K, 60000 kPa | 945.71
315.65 K, 99 kPa | 888.779
318.15 K, 99 kPa | 885.676
318.15 K, 100 kPa | 885.68
318.15 K, 2500 kPa | 888.8
318.15 K, 5000 kPa | 891.79
318.15 K, 7500 kPa | 894.77
318.15 K, 10000 kPa | 897.58
318.15 K, 20000 kPa | 907.94
318.15 K, 30000 kPa | 917.27
318.15 K, 40000 kPa | 925.75
318.15 K, 50000 kPa | 933.61
318.15 K, 60000 kPa | 941.15
320.65 K, 99 kPa | 882.558
323.15 K, 99 kPa | 879.425
323.15 K, 100 kPa | 879.43
323.15 K, 2500 kPa | 882.68
323.15 K, 5000 kPa | 885.8
323.15 K, 7500 kPa | 888.76
323.15 K, 10000 kPa | 891.8
323.15 K, 20000 kPa | 902.39
323.15 K, 30000 kPa | 911.96
323.15 K, 40000 kPa | 920.89
323.15 K, 50000 kPa | 929.01
323.15 K, 60000 kPa | 936.53
325.65 K, 99 kPa | 876.278
328.15 K, 99 kPa | 873.118
328.15 K, 100 kPa | 873.12
328.15 K, 2500 kPa | 876.29
328.15 K, 5000 kPa | 879.75
328.15 K, 7500 kPa | 882.71
328.15 K, 10000 kPa | 885.92
328.15 K, 20000 kPa | 896.99
328.15 K, 30000 kPa | 906.92
328.15 K, 40000 kPa | 915.88
328.15 K, 50000 kPa | 924.13
328.15 K, 60000 kPa | 931.92
330.65 K, 99 kPa | 869.944
333.15 K, 99 kPa | 866.753
333.15 K, 100 kPa | 866.75
333.15 K, 2500 kPa | 870.11
333.15 K, 5000 kPa | 873.62
333.15 K, 7500 kPa | 876.95
333.15 K, 10000 kPa | 880.01
333.15 K, 20000 kPa | 891.39
333.15 K, 30000 kPa | 901.64
333.15 K, 40000 kPa | 910.95
333.15 K, 50000 kPa | 919.48
333.15 K, 60000 kPa | 927.42
335.65 K, 99 kPa | 863.547
338.15 K, 99 kPa | 860.327
338.15 K, 100 kPa | 860.33
338.15 K, 2500 kPa | 863.95
338.15 K, 5000 kPa | 867.36
338.15 K, 7500 kPa | 870.91
338.15 K, 10000 kPa | 874.16
338.15 K, 20000 kPa | 886.03
338.15 K, 30000 kPa | 896.44
338.15 K, 40000 kPa | 905.99
338.15 K, 50000 kPa | 914.74
338.15 K, 60000 kPa | 922.79
